Holding throughout (type): cell-based
The subject of assay [1] is α-SMA. The assay is described as follows: In vitro efficacy in semi-activated LX2 cells, qPCR: α-SMA. The conditions noted are these: 50 µM, 48 hours, Q-PCR, read-out: α-SMA mRNA inhibition rate. How it is done:
(§1) Test compounds were added to the LX-2 cells respectively, and total RNA in the cells was extracted 48 hours later. This experiment was performed strictly in accordance with the instructions of the Total RNA Kit. The steps were as follows (note: this experiment was performed on ice throughout the entire process, and special RNase-free tips were used throughout the entire process): • 1) The 12-well cell culture plate was taken out from the incubator, the cell culture medium was discarded, the cells were washed twice with 1 mL of 1×PBS, and a negative pressure suction device was used to fully remove PBS; • 2) 350 μL of TRK Lysis Buffer mixture/well was prepared as needed (mixture preparation method: 1 mL of TRKLysis Buffer+20 μL of β-mercaptoethanol), vortexed and mixed well. 350 μL was added to each well of the 12-well cell culture plate, and allowed to stand at room temperature for 5 minutes to fully lyse the cells; • 3) 70% ethanol/well was prepared as needed, vortexed and mixed well. 350 μL was added to each well of the 12-well cell culture plate, mixed well by shaking, and transferred to the spin column (spin column+collection tube were assembled); • 4) Centrifugation was performed at 4° C., 12000 g for 60 sec. The waste liquid was discarded after centrifugation, while the spin column was kept; • 5) 500 μL of RNA Wash Buffer I was added, centrifuged at 4° C., 12000 g for 60 sec, the waste liquid was discarded after centrifugation, and the collection column was kept; • 6) 500 μL of RNA Wash Buffer II (confirmed that ethanol had been added) was added, centrifuged at 4° C., 12000 g for 60 sec, the waste liquid was discarded after centrifugation, and the collection column was kept; • 7) step 6) was repeated once again, centrifugation was performed at 4° C., 12000 g for 90 sec, the waste liquid was discarded after centrifugation, and the collection column was kept; • 8) Centrifugation was performed at 4° C., 12000 g for 120 sec to ensure that the spin column was fully dried; • 9) The dried spin column was inserted into a new 1.5 mL EP tube, and 30 μL of DEPC water was added to the membrane in the center of the spin column. It should be careful not to touch the EP tube cover in this step. It was allowed to stand at room temperature for 5 minutes to ensure that the RNA was fully dissolved in DEPC water. Centrifugation was performed at 4° C., 12000 g for 60 sec, and the EP tube was kept; • 10) NanoDrop ultra-micro-volume spectrophotometer was used to detect RNA concentration;
(§2) 5.2 Reverse transcription of RNA into cDNA: According to the instructions of PrimeScript™ RT reagent Kit (Perfect Real Time), the specific experimental steps were as follows:
(§3) 5.3 Q-PCR detection of target gene expression: According to the instructions of Power SYBR® Green PCR Master Mix, the specific operations were as follows:
(§4) After the reaction was completed, the amplification curve and dissolution curve of Q-PCR were confirmed, and the relative quantification method ([…]) was used to perform data analysis on the experimental results.
(§5) LX2 cells were passaged and plated normally. […] After 48 hours, the cells were collected, total RNA was extracted, and Q-PCR was used to detect the changes in the mRNA expression levels of liver fibrosis-related genes (ACTA2 encoding α-SMA, COL1A1 and COLIA2 encoding collagen I, COL3A1 encoding collagen III, SMAD3 encoding Smad3) and inflammation-related genes (IL1β encoding IL-1β, TNFα encoding TNFα) (for specific methods, see 5. Q-PCR detection of target gene expression as described above). α-SMA was a marker of hepatic stellate cell activation, and collagen I and collagen III were the main components of extracellular matrix deposition.

For assay [2], the system named is TNF-α. The assay is described as follows: In vitro efficacy in semi-activated LX2 cells, qPCR: TNF-α. The conditions noted are these: Homo sapiens, LX-2, 48 hours, Q-PCR, read-out: TNF-α mRNA inhibition rate. As for the experimental part:
as §1, §2, §3, §4
(§6) LX2 cells were passaged and plated normally. After adherent growth for 12 hours, 50 µM of the test compound was added. After 48 hours, the cells were collected, total RNA was extracted, and Q-PCR was used to detect the changes in the mRNA expression levels of liver fibrosis-related genes (ACTA2 encoding α-SMA, COL1A1 and COLIA2 encoding collagen I, COL3A1 encoding collagen III, SMAD3 encoding Smad3) and inflammation-related genes (IL1β encoding IL-1β, TNFα encoding TNFα) (for specific methods, see 5. Q-PCR detection of target gene expression as described above). α-SMA was a marker of hepatic stellate cell activation, and collagen I and collagen III were the main components of extracellular matrix deposition.
On the technique in general: Quantitative PCR measures a nucleic acid by following its amplification.

For assay [3], the system named is COL1A1. The assay is described as follows: In vitro efficacy in semi-activated LX2 cells, qPCR: COL1A1. The settings on record: 48 hours, Q-PCR; for inhibition at 50 µM: Homo sapiens, LX-2, 50 µM, read-out: COL1A1 mRNA inhibition rate. As for the experimental part:
as §1, §2, §3, §4, §5

In assay [4] the test system is Smad3. The assay is described as follows: In vitro efficacy in semi-activated LX2 cells, qPCR: Smad3. The settings on record: 48 hours, Q-PCR; for inhibition of the expression of Smad3 at the mRNA level: Table 2; for inhibition at 50 µM: Homo sapiens, LX-2, 50 µM, read-out: Smad3 mRNA inhibition rate. As for the experimental part:
as §1, §2, §3, §4, §5

In assay [5] the test system is IL-1β. Nature of the assay: In vitro efficacy in semi-activated LX2 cells, qPCR: IL-1β. The conditions noted are these: 48 hours, Q-PCR; for inhibition at 50 µM: Homo sapiens, LX-2, 50 µM, read-out: IL-1β mRNA inhibition rate. As for the experimental part:
as §1, §2, §3, §4, §5

In assay [6] the test system is collagen I and collagen III. Nature of the assay: Semi-activated LX2 cells, qPCR: collagen I and collagen III at the mRNA level. The conditions noted are these: 48 hours, Q-PCR, Table 2. As for the experimental part:
as §1, §3
as §6, with “deposition. […]” for “deposition.”

For assay [7], the system named is COL3A1. The assay is described as follows: In vitro efficacy in semi-activated LX2 cells, qPCR: COL3A1. The conditions noted are these: 48 hours, Q-PCR; for inhibition at 50 µM: Homo sapiens, LX-2, 50 µM, read-out: COL3A1 mRNA inhibition rate. As for the experimental part:
as §1, §2, §3, §4, §5

Where a SMILES comes first, the peptide text is derived from it.

Consider `CC(C)(C)OC(=O)N[C@@H](CC(=O)O)C(=O)O` [Compound 1], for which the inhibition at 50 µM in assay [1] lay in the range of 1 to 10%; in assay [2] it was 1 to 10%; in assay [3] it was 1 to 10%; in assay [4] it was 10 to 25%. Also, the “inhibition of the expression of Smad3 at the mRNA level” value (“inhibition of the expression of Smad3” for short) in assay [4] is on record as “could inhibit”.

Regarding `COC(=O)[C@H](CC(=O)O)NC(=O)OCC1c2ccccc2-c2ccccc21` [Compound 5], in assay [5], the inhibition at 50 µM lay within 1 to 10%.

In the case of `COC(=O)C[C@H](N)C(=O)OC.Cl` [Compound 7], the “IL-1β mRNA inhibition rate” value in assay [5] (test concentration 25 μM) is “E (E represented that the inhibition rate was 1% to 10%)”.

As to `COC(=O)C[C@H](NC(=O)OC(C)(C)C)C(=O)O` [Compound 8], the inhibition at 50 µM is 1 to 10% in assay [5], 10 to 25% in assay [3], 1 to 10% in assay [4] and 10 to 25% in assay [7]. Further, the “inhibition of the expression of collagen I and collagen III at the mRNA level” value in assay [6] is recorded as “could inhibit”.

In the case of `COC(=O)C[C@H](NC(=O)OCC1c2ccccc2-c2ccccc21)C(=O)O` [Compound 9], the figures for the inhibition at 50 µM in assay [1], in assay [5] and in assay [4] were 1 to 10%, 25 to 50% and 10 to 25%, respectively. Further, in assay [4], the “inhibition of the expression of Smad3” value is given as “could inhibit”.

Consider `C=CCOC(=O)C[C@H](NC(=O)OCC1c2ccccc2-c2ccccc21)C(=O)O` [Compound 11], for which the inhibition at 50 µM fell in the range of 25 to 50% in assay [5], 1 to 10% in assay [2] and 1 to 10% in assay [4].

Turning to `CC(C)(C)OC(=O)[C@@H](N)CC(=O)O` [Compound 14], the “inhibition of the expression of collagen I and collagen III at the mRNA level” value in assay [6] is listed as “could inhibit”. In addition, the inhibition at 50 µM in assay [2] was in the range of 1 to 10%; in assay [3] it was 10 to 25%; in assay [7], 1 to 10%.

As for `COC(=O)[C@@H](N)CC(=O)OC(C)(C)C` [Compound 15], the inhibition at 50 µM in assay [1] lay within 1 to 10%; in assay [2], 1 to 10%; in assay [3], 10 to 25%; in assay [4], 10 to 25%; in assay [7], 10 to 25%. Besides, the “inhibition of the expression of collagen I and collagen III at the mRNA level” value in assay [6] is “could inhibit”. Also, the “inhibition of the expression of Smad3” value in assay [4] is given as “could inhibit”.

`CC(C)(C)OC(=O)C[C@H](NC(=O)OCc1ccccc1)C(=O)O` [Compound 16]: the inhibition at 50 µM in assay [2] and in assay [3] was 1 to 10% throughout.

On to `CC(C)(C)OC(=O)C[C@H](NC(=O)OC(C)(C)C)C(=O)O` [Compound 17], for which the inhibition at 50 µM in assay [1] lay within 1 to 10%; in assay [2], 10 to 25%; in assay [3], 1 to 10%; in assay [4] it was 1 to 10%.

In the case of `CC(C)(C)OC(=O)N[C@@H](CC(=O)O)C(=O)OCc1ccccc1` [Compound 21], the inhibition at 50 µM in assay [1] lay within 1 to 10%; in assay [3] it was 1 to 10%; in assay [4] it was 1 to 10%; in assay [7] it was 10 to 25%. The “inhibition of the expression of collagen I and collagen III at the mRNA level” value in assay [6] is recorded as “could inhibit”.

For the compound `N[C@@H](CC(=O)OCc1ccccc1)C(=O)O` [Compound 22], the inhibition at 50 µM in assay [5] fell in the range of 1 to 10%; in assay [2], 1 to 10%; in assay [3] it was 10 to 25%; in assay [4] it was 10 to 25%; in assay [7] it was 1 to 10%. Besides, in assay [6], the “inhibition of the expression of collagen I and collagen III at the mRNA level” value is on record as “could inhibit”. Further, the “inhibition of the expression of Smad3” value in assay [4] was “could inhibit”.

For the compound `CC(=O)N[C@@H](CC(=O)OC(C)(C)C)C(=O)O` [Compound 31], the inhibition at 50 µM in assay [1], in assay [5] and in assay [3] was 1 to 10% throughout.

As for `N[C@@H](CC(=O)NCC(=O)O)C(=O)O` [Compound 34], the inhibition at 50 µM in assay [1], in assay [5], in assay [2], in assay [4] and in assay [7] was 1 to 10% in each case.

For the compound `CC(C)OC(=O)C[C@H](N)C(=O)O` [Compound 36, 4-isopropyl L-aspartic acid ester], the inhibition at 50 µM in assay [1], in assay [2], in assay [4] and in assay [7] was 1 to 10% each time.

Turning to `O=C(O)C[C@H](NC(=O)[C@@H]1CCCN1)C(=O)O` [Compound 40] (H-Pro-Asp-OH), the inhibition at 50 µM in assay [5] fell in the range of 1 to 10%; in assay [2], 1 to 10%; in assay [3], 25 to 50%; in assay [4] it was 1 to 10%; in assay [7], 25 to 50%. Also, the “inhibition of the expression of collagen I and collagen III at the mRNA level” value in assay [6] is reported as “could inhibit”.

With `COC(=O)C[C@H](N)C(=O)OC(C)(C)C.Cl` [Compound 44], the “IL-1β mRNA inhibition rate” value in assay [5] (50 µM) was “E (E represented that the inhibition rate was 1% to 10%)”. Also, the “inhibition of the expression of collagen I and collagen III at the mRNA level” value in assay [6] is listed as “could inhibit”. Moreover, the “COL1A1 mRNA inhibition rate” value in assay [3] (50 µM) was “D (D represented that the inhibition rate was 10% to 25%)”. Also, in assay [7] (50 µM), the “COL3A1 mRNA inhibition rate” value is reported as “E (E represented that the inhibition rate was 1% to 10%)”.

Consider `CC(C)C(=O)N[C@@H](CC(=O)O)C(=O)O` [Compound 59, isobutyryl-L-aspartic acid], for which the inhibition at 50 µM in assay [1] fell in the range of 1 to 10%; in assay [2], 1 to 10%; in assay [3], 10 to 25%. Also, the “inhibition of the expression of collagen I and collagen III at the mRNA level” value in assay [6] is “could inhibit”.

Consider `CN(C)C(=O)N[C@@H](CC(=O)O)C(=O)O` [Compound 62, (dimethylcarbamoyl)-L-aspartic acid], for which the inhibition at 50 µM in assay [1], in assay [5], in assay [2], in assay [3] and in assay [4] was 1 to 10% each time.

The inhibition is the percentage by which the read-out fell short of the control.

The record behind these values is patent publication US20250025438A1, “Derivative of aspartic acid and use thereof in treatment of metabolic diseases such as hepatic fibrosis and non-alcoholic hepatitis” (SHENZHEN JINGTAI TECHNOLOGY CO., LTD., priority 2021, published 2025).
